Results published in PubChem BioAssay AID256 (DTP/NCI, 2004).
Where “and” joins values, the source holds several entries; their conditions need not be identical. Equal entries are not always repeated. Inconclusive results and toxic doses are left out. Rule for the calls: active = survival T/C of 150% or more; inactive = T/C below 125% in these data.

Tested on: CD2F1 mice, L1210 leukemia ip, survival T/C
Test: NCI In Vivo Anticancer Drug Screen. Data for tumor model L1210 Leukemia (intraperitoneal) in CD2F1 (CDF1) mice
Conditions: higher = longer survival
How it was run: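 In this screen, transplantable tumors were grown in mice given either the compound or its vehicle. Results were expressed as the treated measurement relative to the control measurement.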

[1] = endpoint: mean survival time, dose: 6.25 mg/kg/injection, schedule: Q01DX001 (ip), vehicle: saline with Tween-80
[2] = endpoint: mean survival time, dose: 12.5 mg/kg/injection, schedule: Q01DX001 (ip), vehicle: saline with Tween-80
[3] = endpoint: mean survival time, dose: 25.0 mg/kg/injection, schedule: Q01DX001 (ip), vehicle: saline with Tween-80
[4] = endpoint: mean survival time, dose: 100.0 mg/kg/injection, schedule: Q01DX001 (ip), vehicle: saline
[5] = endpoint: mean survival time, dose: 200.0 mg/kg/injection, schedule: Q01DX001 (ip), vehicle: saline
[6] = endpoint: mean survival time, dose: 400.0 mg/kg/injection, schedule: Q01DX001 (ip), vehicle: saline
[7] = endpoint: mean survival time, dose: 100.0 mg/kg/injection, schedule: Q04DX002 (ip), vehicle: saline with Tween-80
[8] = endpoint: mean survival time, dose: 200.0 mg/kg/injection, schedule: Q04DX002 (ip), vehicle: saline with Tween-80
[9] = endpoint: mean survival time, dose: 400.0 mg/kg/injection, schedule: Q04DX002 (ip), vehicle: saline with Tween-80
[10] = endpoint: mean survival time, dose: 12.5 mg/kg/injection, schedule: Q01DX009 (ip), vehicle: saline
[11] = endpoint: mean survival time, dose: 25.0 mg/kg/injection, schedule: Q01DX009 (ip), vehicle: saline

Measured: T/C

COc1cc(C2c3cc4c(c(OC5OC6CO[C@@H](c7cccs7)OC6C(O)C5O)c3C[C@@H]3COC(=O)[C@@H]23)OCO4)cc(OC)c1O (stereo not given in full)
inactive: endpoint: median survival time, dose: 0.8 mg/kg/injection, schedule: Q01DX005 (ip), vehicle: saline with Tween-80 104 % of control | endpoint: median survival time, dose: 1.6 mg/kg/injection, schedule: Q01DX005 (ip), vehicle: saline with Tween-80 100 % of control | endpoint: median survival time, dose: 3.2 mg/kg/injection, schedule: Q01DX005 (ip), vehicle: saline with Tween-80 107 % of control | endpoint: median survival time, dose: 6.4 mg/kg/injection, schedule: Q01DX005 (ip), vehicle: saline with Tween-80 107 % of control

Cc1ncc(COP(=O)(O)O)c(C=NC(C)C(=O)O)c1O.O.[Cu] (stereo not given)
inactive: [1] 95 % of control | [2] 92 % of control | [3] 103 % of control

CC[n+]1cccc2ccccc21
inactive: endpoint: mean survival time, dose: 18.8 mg/kg/injection, schedule: Q01DX009 (ip), vehicle: saline 95 % of control | endpoint: mean survival time, dose: 25.0 mg/kg/injection, schedule: Q04DX003 (ip), vehicle: saline 96 % of control | endpoint: mean survival time, dose: 37.5 mg/kg/injection, schedule: Q01DX009 (ip), vehicle: saline 96 % of control

CCOC(=O)c1ccc(NS(=O)c2ccccc2)cc1 (stereo not given)
inactive: [4] 95 % of control | endpoint: mean survival time, dose: 100.0 mg/kg/injection, schedule: Q04DX003 (ip), vehicle: saline 109 % of control | [5] 95 % of control | endpoint: mean survival time, dose: 200.0 mg/kg/injection, schedule: Q04DX003 (ip), vehicle: saline 108 % of control | [6] 94 % of control | endpoint: mean survival time, dose: 400.0 mg/kg/injection, schedule: Q04DX003 (ip), vehicle: saline 103 % of control

CC(=O)OC1CCC2(C)C(CCC3C2CCC2(C)C(c4cccc(=O)o4)CCC32)C1 (stereo not given)
inactive: [4] 101 % of control | [5] 97 % of control | [6] 95 % of control

CCCCCCCCCCCOc1ccc(Cl)cc1Cl
inactive: [7] 90 % of control | [8] 93 % of control | [9] 86 % of control

CC1C(C(=O)c2ccccc2)C(c2ccccc2)OP1(c1ccccc1)(c1ccccc1)c1ccccc1 (stereo not given)
inactive: [1] 97 % of control | [2] 96 % of control | [3] 105 % of control

COc1ccc(/C=C/c2cc[n+](C)cc2)cc1
inactive: [10] 102 % of control | [11] 95 % of control

CCCCOC(=O)COc1ccc(F)cc1F
inactive: [7] 95 % of control | [8] 100 % of control | [9] 92 % of control

COc1cc2c(C)nc3c4cc5c(cc4ccc3c2cc1OC)OCO5
inactive: endpoint: mean survival time, dose: 3.13 mg/kg/injection, schedule: Q01DX009 (ip), vehicle: water 97 % of control | endpoint: mean survival time, dose: 6.25 mg/kg/injection, schedule: Q01DX009 (ip), vehicle: water 92 % of control | endpoint: mean survival time, dose: 12.5 mg/kg/injection, schedule: Q01DX009 (ip), vehicle: water 90 % of control | endpoint: mean survival time, dose: 25.0 mg/kg/injection, schedule: Q01DX009 (ip), vehicle: water 95 % of control | endpoint: mean survival time, dose: 50.0 mg/kg/injection, schedule: Q01DX009 (ip), vehicle: water 93 % of control

CCCCCCC(=O)/C=C\C(C)=C\c1ccccc1
inactive: endpoint: mean survival time, dose: 100.0 mg/kg/injection, schedule: Q01DX001 (ip), vehicle: saline with Tween-80 94 % of control | endpoint: mean survival time, dose: 100.0 mg/kg/injection, schedule: Q01DX009 (ip), vehicle: saline with Tween-80 98 % of control | endpoint: mean survival time, dose: 200.0 mg/kg/injection, schedule: Q01DX001 (ip), vehicle: saline with Tween-80 100 % of control | endpoint: mean survival time, dose: 200.0 mg/kg/injection, schedule: Q01DX009 (ip), vehicle: saline with Tween-80 98 % of control | endpoint: mean survival time, dose: 400.0 mg/kg/injection, schedule: Q01DX001 (ip), vehicle: saline with Tween-80 94 % of control | endpoint: mean survival time, dose: 400.0 mg/kg/injection, schedule: Q01DX009 (ip), vehicle: saline with Tween-80 98 % of control

CCCOCC(O)CNCCN (stereo not given)
inactive: [10] 96 % of control and 101 % of control | [11] 94 % of control and 98 % of control | endpoint: mean survival time, dose: 50.0 mg/kg/injection, schedule: Q01DX009 (ip), vehicle: saline 93 % of control and 94 % of control | endpoint: mean survival time, dose: 100.0 mg/kg/injection, schedule: Q01DX009 (ip), vehicle: saline 93 % of control and 96 % of control
